Like-named read-outs stand apart in the source and are kept apart here.
Test system: SARS-CoV-2 strain USA-WA1/2020
Assay: microbe, parasite or virus in culture
Assay type: cell-based
Details: Severe acute respiratory syndrome coronavirus 2, HeLa-ACE2, 24 h, read-out: EC50, uM (Hela)
[1] = HeLa-ACE2 cells, SARS-CoV-2 infection, 24 h, class symbols
[2] = HeLa-ACE2 cells, SARS-CoV-2 infection, 24 h

CC(C)C[C@H](NC(=O)C(Nc1ccccc1F)C(F)(F)F)C(=O)N[C@@H](C[C@@H]1CCNC1=O)C(=O)COc1c(F)c(F)cc(F)c1F (stereo partly drawn) [Compound 97, (2S)-4-methyl-N-((S)-3-oxo-1-((S)-2-oxopyrrolidin-3-yl)-4-(2,3,5,6-tetrafluorophenoxy)butan-2-yl)-2-(3,3,3-trifluoro-2-((2-fluorophenyl)-amino)propanamido)-pentanamide]
EC50 [1]: 0.2 to 0.5 µM

Cc1ccccc1NC(=O)C(=O)N[C@@H](CC(C)(C)C)C(=O)N[C@@H](C[C@@H]1CCNC1=O)C(=O)COC(F)(F)F [Compound 504, N1-((S)-4,4-dimethyl-1-oxo-1-(((S)-3-oxo-1-((S)-2-oxopyrrolidin-3-yl)-4-(trifluoromethoxy)butan-2-yl)amino)pentan-2-yl)-N2-(o-tolyl)oxalamide]
EC50 [2]: < 0.05 µM

O=C(NC1CC(F)(F)C1)C(=O)N1C[C@@H]2CCC[C@@H]2[C@H]1C(=O)N[C@@H](C[C@@H]1CCNC1=O)C(=O)COC(F)(F)F [Compound 523, (1S,3aR,6aS)-2-(2-((3,3-difluorocyclobutyl)-amino)-2-oxoacetyl)-N-((S)-3-oxo-1-((S)-2-oxopyrrolidin-3-yl)-4-(trifluoromethoxy)butan-2-yl)octahydrocyclo-penta[c]pyrrole-1-carboxamide]
EC50 [2]: < 0.05 µM

O=C(N[C@@H](CC1CC1)C(=O)N[C@@H](C[C@@H]1CCNC1=O)C(=O)COC(F)(F)F)c1cc(-c2ccccc2)n[nH]1 [Compound 192, N-((S)-3-cyclopropyl-1-oxo-1-(((S)-3-oxo-1-((S)-2-oxopyrrolidin-3-yl)-4-(trifluoromethoxy)butan-2-yl)amino)propan-2-yl)-3-phenyl-1H-pyrazole-5-carboxamide]
EC50 [1]: 0.05 to 0.2 µM

CC(C)C[C@H](NC(=O)C(=O)Nc1ccccc1)C(=O)N[C@@H](C[C@@H]1CCNC1=O)C(=O)COP(=O)(c1ccccc1)c1ccccc1 [Compound 73, (S)-3-((S)-4-methyl-2-(2-oxo-2-(phenylamino)acetamido)-pentanamido)-2-oxo-4-((S)-2-oxopyrrolidin-3-yl)butyl-diphenylphosphinate]
EC50: 0.05 to 0.2 µM

CC(C)C[C@H](NC(=O)C(=O)NC1CC(F)(F)C1)C(=O)N[C@@H](C[C@@H]1CCNC1=O)C(=O)COC(F)(F)F [Compound 205, Nl-(3,3-difluorocyclobutyl)-N2-((S)-4-methyl-1-oxo-1-(((S)-3-oxo-1-((S)-2-oxopyrrolidin-3-yl)-4-(trifluoromethoxy)butan-2-yl)amino)pentan-2-yl)oxalamide]
EC50 [1]: < 0.05 µM

O=C(Nc1cccc(Cl)c1)C(=O)N1CC2(CC2)C[C@H]1C(=O)N[C@@H](C[C@@H]1CCNC1=O)C(=O)COC(F)(F)F [Compound 607, (S)-5-(2-((3-chlorophenyl)amino)-2-oxoacetyl)-N-((S)-3-oxo-1-((S)-2-oxopyrrolidin-3-yl)-4-(trifluoromethoxy)butan-2-yl)-5-azaspiro[2.4]heptane-6-carboxamide]
EC50 [2]: < 0.05 µM

O=C(N[C@@H](CC1CC1)C(=O)N[C@@H](C[C@@H]1CCNC1=O)C(=O)COC(F)(F)F)C(=O)NC1(C(F)(F)F)CC1 [Compound 512, N1-((S)-3-cyclopropyl-1-oxo-1-(((S)-3-oxo-1-((S)-2-oxopyrrolidin-3-yl)-4-(trifluoromethoxy)butan-2-yl)amino)propan-2-yl)-N2-(1-(trifluoromethyl)-cyclopropyl)-oxalamide]
EC50 [2]: 0.05 to 0.2 µM

CC(C)C[C@H](NC(=O)C(=O)NC1CC1)C(=O)N[C@@H](C[C@@H]1CCNC1=O)C(=O)COC(F)(F)F [Compound 174, N1-cycl opropyl-N2-((S)-4-methyl-1-oxo-1-(((S)-3-oxo-1-((S)-2-oxopyrrolidin-3-yl)-4-(trifluoromethoxy)butan-2-yl)amino)pentan-2-yl)oxalamide]
EC50 [1]: < 0.05 µM

CC(C)C[C@H](NC(=O)c1cc2cnccc2[nH]1)C(=O)N[C@@H](C[C@@H]1CCNC1=O)C(=O)COc1c(F)c(F)cc(F)c1F [Compound 29, N-((S)-4-methyl-1-oxo-1-(((S)-3-oxo-1-((S)-2-oxopyrrolidin-3-yl)-4-(2,3,5,6-tetrafluorophenoxy)butan-2-yl)amino)pentan-2-yl)-1H-pyrrolo[3,2-c]pyridine-2-carboxamide]
EC50 [1]: < 0.05 µM

O=C1NCC[C@H]1C[C@H](NC(=O)[C@@H]1CC2(CC2)CN1C(=O)c1cc2cccc(Cl)c2[nH]1)C(=O)COC(F)(F)F [Compound 663, (S)-5-(7-chloro-1H-indole-2-carbonyl)-N-((S)-3-oxo-1-((S)-2-oxopyrrolidin-3-yl)-4-(trifluoromethoxy)butan-2-yl)-5-azaspiro[2.4]heptane-6-carboxamide]
EC50 [2]: < 0.05 µM

COc1ccc(C[C@H](NC(=O)c2cc3cc(F)ccc3[nH]2)C(=O)N[C@@H](CC2CCNC2=O)C(=O)COc2c(F)c(F)cc(F)c2F)cc1 (stereo partly drawn) [Compound 19, 5-fluoro-N-((2S)-3-(4-methoxyphenyl)-1-oxo-1-(((2S)-3-oxo-1-(2-oxopyrrolidin-3-yl)-4-(2,3,5,6-tetrafluorophenoxy)butan-2-yl)amino)propan-2-yl)-1H-indole-2-carboxamide]
EC50 [1]: 0.2 to 0.5 µM

O=C(N[C@@H](CC1CC1)C(=O)N[C@@H](C[C@@H]1CCNC1=O)C(=O)COC(F)(F)F)c1nnc(-c2ccc(F)cc2)o1 [Compound 184, N-((S)-3-cyclopropyl-1-oxo-1-(((S)-3-oxo-1-((S)-2-oxopyrrolidin-3-yl)-4-(trifluoromethoxy)butan-2-yl)amino)propan-2-yl)-5-(4-fluorophenyl)-1,3,4-oxadiazole-2-carboxamide]
EC50 [1]: 0.05 to 0.2 µM

O=C(NC(CC1CCOCC1)C(=O)N[C@@H](C[C@@H]1CCNC1=O)C(=O)COC(F)(F)F)c1cc(-c2ccccc2F)on1 (stereo partly drawn) [Compound 183, 5-(2-fluorophenyl)-N-(1-oxo-1-(((S)-3-oxo-1-((S)-2-oxopyrrolidin-3-yl)-4-(trifluoromethoxy)butan-2-yl)amino)-3-(tetrahydro-2H-pyran-4-yl)propan-2-yl)isoxazole-3-carboxamide]
EC50 [1]: < 0.05 µM

[2H]C([2H])([2H])CCCCC(=O)N1CC2(CC2)C[C@H]1C(=O)N[C@@H](C[C@@H]1CCNC1=O)C(=O)COC(F)(F)F [Compound 757, (S)-5-(hexanoyl-6,6,6-d3)-N-((S)-3-oxo-l-((S)-2-oxopyrrolidin-3-yl)-4-(trifluoromethoxy)butan-2-yl)-5-azaspiro[2.4]heptane-6-carboxamide]
EC50 [2]: < 0.05 µM

CC1(C)[C@@H]2[C@@H](C(=O)N[C@@H](C[C@@H]3CCNC3=O)C(=O)COC(F)(F)F)N(C(=O)C(=O)NCC(F)F)C[C@@H]21 [Compound 516, (1R,2S,5S)-3-(2-((2,2-difluoroethyl)amino)-2-oxoacetyl)-6,6-dimethyl-N-((S)-3-oxo-1-((S)-2-oxopyrrolidin-3-yl)-4-(trifluoromethoxy)butan-2-yl)-3-azabicyclo-[3.1.0]hexane-2-carboxamide]
EC50 [2]: 0.05 to 0.2 µM

CC(C)C[C@H](NC(=O)C(=O)NC1CCCCC1)C(=O)N[C@@H](C[C@@H]1CCNC1=O)C(=O)COc1c(F)c(F)cc(F)c1F [Compound 69, N1-cyclohexyl-N2-((S)-4-methyl-1-oxo-1-(((S)-3-oxo-1-((S)-2-oxopyrrolidin-3-yl)-4-(2,3,5,6-tetra-fluorophenoxy)butan-2-yl)amino)pentan-2-yl)oxalamide]
EC50 [1]: 0.05 to 0.2 µM

O=C(NCC(=O)N1CC2(CC2)C[C@H]1C(=O)N[C@@H](C[C@@H]1CCNC1=O)C(=O)COC(F)(F)F)c1ccccc1F [Compound 437, (S)-5-((2-fluorobenzoyl)glycyl)-N-((S)-3-oxo-1-((S)-2-oxopyrrolidin-3-yl)-4-(trifluoromethoxy)butan-2-yl)-5-azaspiro[2.4]heptane-6-carboxamide]
EC50 [2]: 0.05 to 0.2 µM

COc1cccc2[nH]c(C(=O)N[C@@H](CC(C)C)C(=O)N[C@@H](C[C@@H]3CCCNC3=O)C(=O)COC(F)(F)F)cc12 [Compound 229, 4-methoxy-N-((S)-4-methyl-1-oxo-1-(((S)-3-oxo-1-((S)-2-oxopiperidin-3-yl)-4-(trifluoromethoxy)butan-2-yl)amino)pentan-2-yl)-1H-indole-2-carboxamide]
EC50 [1]: < 0.05 µM

CC(C)C[C@H](NC(=O)C(=O)N[C@@H]1CCCc2ccccc21)C(=O)N[C@@H](C[C@@H]1CCNC1=O)C(=O)COc1c(F)c(F)cc(F)c1F [Compound 147, N1-((S)-4-methyl-1-oxo-1-(((S)-3-oxo-1-((S)-2-oxopyrrolidin-3-yl)-4-(2,3,5,6-tetrafluorophenoxy)butan-2-yl)amino)pentan-2-yl)-N2-((R)-1,2,3,4-tetrahydronaphthalen-1-yl)oxalamide]
EC50 [1]: 0.5 to 1 µM

CC1(C)[C@@H]2[C@@H](C(=O)N[C@@H](C[C@@H]3CCNC3=O)C(=O)COC(F)(F)F)N(C(=O)C(=O)NC3(C(F)(F)F)CC3)C[C@@H]21 [Compound 475, (1R,2S,5S)-6,6-dimethyl-N-((S)-3-oxo-1-((S)-2-oxopyrrolidin-3-yl)-4-(trifluoromethoxy)butan-2-yl)-3-(2-oxo-2-((1-(trifluoromethyl)-cyclopropyl)amino)acetyl)-3-zabicyclo[3.1.0]hexane-2-carboxamide]
EC50 [2]: 0.05 to 0.2 µM

CC(C)C[C@H](NC(=O)C(=O)Nc1ccccc1F)C(=O)N[C@@H](C[C@@H]1CCCNC1=O)C(=O)COC(F)(F)F [Compound 219, N^1-(2-fluorophenyl)-N^2—((S)-4-methyl-1-oxo-1-(((S)-3-oxo-1-((S)-2-oxopiperidin-3-yl)-4-(trifluoromethoxy)butan-2-yl)amino)pentan-2-yl)oxalamide]
EC50 [1]: < 0.05 µM

CC(C)CC(F)(F)C(=O)N1CC2(CC2)C[C@H]1C(=O)N[C@@H](C[C@@H]1CCNC1=O)C(=O)COC(F)(F)F [Compound 623, (S)-5-(2,2-difluoro-4-methylpentanoyl)-N-((S)-3-oxo-1-((S)-2-oxopyrrolidin-3-yl)-4-(trifluoromethoxy)butan-2-yl)-5-azaspiro[2.4]heptane-6-carboxamide]
EC50 [2]: < 0.05 µM

From US11708348B2, “Protease inhibitors for treatment of coronavirus infections” (The Scripps Research Institute, priority 2021, dated 2023)
